Data from paper PMC6352943, “Novel pyrazolo[3,4-d]pyrimidines: design, synthesis, anticancer activity, dual EGFR/ErbB2 receptor tyrosine kinases inhibitory activity, effects on cell cycle profile and caspase-3-mediated apoptosis” (Journal of Enzyme Inhibition and Medicinal Chemistry, 2019).

Legend:
HCT-116 = experiment: NCI 60 cell line single dose screen (SRB); format: cell-based; settings: Homo sapiens; HCT-116 (colon cancer), single dose 10^−5 M, 48 h; read-out: Growth inhibition percentage
How it was run: (§1)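 Cells were plated and grown 24 h at 37 °C, 5% CO2 before compound addition from DMSO stock, then exposed 48 h. Adherent cells were fixed with cold TCA (final 10%) and suspension cells with 16% TCA. SRB-stained protein was read at 515 nm and percent growth was calculated against time-zero and untreated plates.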

MCF7 = experiment: NCI 60 cell line single dose screen (SRB); format: cell-based; settings: Homo sapiens; MCF7 (breast cancer), single dose 10^−5 M, 48 h; read-out: Growth inhibition percentage
How it was run: as §1

NCI-H322M = experiment: NCI 60 cell line single dose screen (SRB); format: cell-based; settings: Homo sapiens; NCI-H322M (non-small cell lung cancer), single dose 10^−5 M, 48 h; read-out: Growth inhibition percentage
How it was run: as §1

MALME-3M = experiment: NCI 60 cell line single dose screen (SRB); format: cell-based; settings: Homo sapiens; MALME-3M (melanoma), single dose 10^−5 M, 48 h; read-out: Growth inhibition percentage
How it was run: as §1

UO-31 = experiment: NCI 60 cell line single dose screen (SRB); format: cell-based; settings: Homo sapiens; UO-31 (renal cancer), single dose 10^−5 M, 48 h; read-out: Growth inhibition percentage
How it was run: as §1

SW-620 = experiment: NCI 60 cell line single dose screen (SRB); format: cell-based; settings: Homo sapiens; SW-620 (colon cancer), single dose 10^−5 M, 48 h; read-out: Growth inhibition percentage
How it was run: as §1

T-47D = experiment: NCI 60 cell line single dose screen (SRB); format: cell-based; settings: Homo sapiens, T47D; T-47D (breast cancer), single dose 10^−5 M, 48 h; read-out: Growth inhibition percentage
How it was run: as §1

M14 = experiment: NCI 60 cell line single dose screen (SRB); format: cell-based; settings: Homo sapiens; M14 (melanoma), single dose 10^−5 M, 48 h; read-out: Growth inhibition percentage
How it was run: as §1

MDA-MB-435 = experiment: NCI 60 cell line single dose screen (SRB); format: cell-based; settings: Homo sapiens; MDA-MB-435 (melanoma), single dose 10^−5 M, 48 h; read-out: Growth inhibition percentage
How it was run: as §1

MDA-MB-468 = experiment: NCI 60 cell line single dose screen (SRB); format: cell-based; settings: Homo sapiens; MDA-MB-468 (breast cancer), single dose 10^−5 M, 48 h; read-out: Growth inhibition percentage
How it was run: as §1

786-0 = experiment: NCI 60 cell line single dose screen (SRB); format: cell-based; settings: Homo sapiens; 786-0 (renal cancer), single dose 10^−5 M, 48 h; read-out: Growth inhibition percentage
How it was run: as §1

A498 = experiment: NCI 60 cell line single dose screen (SRB); format: cell-based; settings: Homo sapiens; A498 (renal cancer), single dose 10^−5 M, 48 h; read-out: Growth inhibition percentage
How it was run: as §1

U251 = experiment: NCI 60 cell line single dose screen (SRB); format: cell-based; settings: Homo sapiens, U-251; U251 (CNS cancer), single dose 10^−5 M, 48 h; read-out: Growth inhibition percentage
How it was run: as §1

COLO 205 = experiment: NCI 60 cell line single dose screen (SRB); format: cell-based; settings: Homo sapiens, COLO 205, 48 h; read-out: Growth inhibition percentage
How it was run: as §1

SF-295 = experiment: NCI 60 cell line single dose screen (SRB); format: cell-based; settings: Homo sapiens; SF-295 (CNS cancer), single dose 10^−5 M, 48 h; read-out: Growth inhibition percentage
How it was run: as §1

OVCAR-8 = experiment: NCI 60 cell line single dose screen (SRB); format: cell-based; settings: Homo sapiens; OVCAR-8 (ovarian cancer), single dose 10^−5 M, 48 h; read-out: Growth inhibition percentage
How it was run: as §1

In the case of `COc1cc(C=NNc2ncnc3c2c(C)nn3-c2ccc(F)cc2)ccc1O` [Compound 10b, 1–(4-Fluorophenyl)-4–(2-(4-hydroxy-3-methoxybenzylidene)-hydrazinyl)-3-methyl-1H-pyrazolo[3,4-d]pyrimidine], the inhibition at 10 µM (HCT-116) is reported as -4.51%, the inhibition at 10 µM (MCF7) is reported as 14.7% and the inhibition at 10 µM (NCI-H322M) is reported as 14.4%. It also gave an inhibition at 10 µM (MALME-3M) of -12.4%, an inhibition at 10 µM (UO-31) of 35.6% and an inhibition at 10 µM (SW-620) of -30.9%. The inhibition at 10 µM (T-47D) was 20.1%, the inhibition at 10 µM (M14) was -2.1% and the inhibition at 10 µM (MDA-MB-435) was 4.56%. The inhibition at 10 µM (MDA-MB-468) was 8.05%, the inhibition at 10 µM (786-0) was 11.3% and the inhibition at 10 µM (A498) was -3.34%. It also gave an inhibition at 10 µM (U251) of 5.64%, an inhibition at 10 µM (COLO 205) of -4.39% and an inhibition at 10 µM (SF-295) of -5.51%. For the same compound, the inhibition at 10 µM (OVCAR-8) was 3.64% and the melting point was 221 to 223 °C.

For `COc1cc(C=NNc2ncnc3c2c(C)nn3-c2ccc(F)cc2)cc(OC)c1OC` [Compound 10c, 1–(4-Fluorophenyl)-3-methyl-4–(2-(3,4,5-trimethoxybenzylidene)-hydrazinyl)-1H-pyrazolo[3,4-d]pyrimidine], the inhibition at 10 µM (HCT-116) was 3.15%, the inhibition at 10 µM (MCF7) was 1.96% and the inhibition at 10 µM (NCI-H322M) was 13.5%. It also gave an inhibition at 10 µM (MALME-3M) of 12.6%, an inhibition at 10 µM (UO-31) of 31.1% and an inhibition at 10 µM (SW-620) of -11.7%. The inhibition at 10 µM (T-47D) was 16.8%, the inhibition at 10 µM (M14) was 2.73% and the inhibition at 10 µM (MDA-MB-435) was -2.02%. For the same compound, the inhibition at 10 µM (MDA-MB-468) was -4.81%, the inhibition at 10 µM (786-0) was 1.85% and the inhibition at 10 µM (A498) was 22%. For the same compound, the inhibition at 10 µM (U251) was 0.92%, the inhibition at 10 µM (COLO 205) was -6.78% and the inhibition at 10 µM (SF-295) was -2.66%. For the same compound, the inhibition at 10 µM (OVCAR-8) was -1.23% and the melting point was 222 to 224 °C.
